pIC50: −log10 of the molar value.
Biological target: recombinant full length HPK-1 enzyme (Homo sapiens (Human), UniProt Q92918)
Assay: HPK-1 biochemical enzyme assay (ADP-Glo kinase inhibition)
Details: recombinant full length HPK-1 6.8 nM, 10 μM ATP, 12.5 μM MBP, 30 mins at 25° C.
Experimental: HPK-1 biochemical enzyme assay
Compound inhibitory potency was measured in an HPK-1 kinase inhibition assay. Briefly, recombinant full length HPK-1 enzyme (6.8 nM) was incubated with 10 μM ATP and 12.5 μM swine myelin basic protein (MBP) for 30 mins. at 25° C. in the presence of various concentrations of test compound or vehicle in 40 mM Tris.Cl pH7.4 buffer containing 20 mM MgCl2, 50 μM DTT and 0.1 mg/mL BSA. Reactions were quenched and reaction mixtures were then analyzed by an ADP-Glo kit which measures the formed ADP. The percent inhibition was calculated from the substrate conversion considering no enzyme control reactions for 100% inhibition and vehicle only reactions for 0% inhibition. The compounds were dissolved in DMSO and evaluated at 10 concentrations to determine an IC50 value.
In the below table A denotes an HPK-1 IC50≤10 nM, B denotes an HPK-1 IC50>10 nM but≤100 nM and C denotes an HPK-1 IC50>100 nM but≤1000 nM.

Chain of recombinant full length HPK-1 enzyme (Q92918 whole entry, species assumed): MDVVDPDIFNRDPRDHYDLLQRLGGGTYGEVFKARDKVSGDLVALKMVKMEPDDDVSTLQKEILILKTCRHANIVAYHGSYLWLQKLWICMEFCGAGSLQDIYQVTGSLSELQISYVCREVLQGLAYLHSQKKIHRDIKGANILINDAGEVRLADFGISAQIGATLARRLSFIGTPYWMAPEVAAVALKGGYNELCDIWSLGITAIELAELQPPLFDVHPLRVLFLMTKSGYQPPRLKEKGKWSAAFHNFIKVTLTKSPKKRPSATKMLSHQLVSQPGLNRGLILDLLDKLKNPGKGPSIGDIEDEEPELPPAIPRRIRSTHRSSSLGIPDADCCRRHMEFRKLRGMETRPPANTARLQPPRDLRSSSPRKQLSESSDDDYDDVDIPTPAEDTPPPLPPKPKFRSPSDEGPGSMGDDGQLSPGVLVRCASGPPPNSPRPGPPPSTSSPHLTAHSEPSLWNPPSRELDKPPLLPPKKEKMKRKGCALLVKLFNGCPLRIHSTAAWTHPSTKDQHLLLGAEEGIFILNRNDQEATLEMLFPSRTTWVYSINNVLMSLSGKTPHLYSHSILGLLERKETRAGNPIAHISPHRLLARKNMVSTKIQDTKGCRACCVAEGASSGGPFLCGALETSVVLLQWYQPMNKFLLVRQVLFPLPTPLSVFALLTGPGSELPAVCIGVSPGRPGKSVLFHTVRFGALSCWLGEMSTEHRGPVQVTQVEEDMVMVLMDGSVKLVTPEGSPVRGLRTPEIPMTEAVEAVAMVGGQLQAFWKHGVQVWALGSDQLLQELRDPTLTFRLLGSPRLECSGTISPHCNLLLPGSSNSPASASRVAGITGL

| pIC50 | Structure (SMILES) |
| --- | --- |
| ≥ 8.00 | CCC(=O)N1CCN(c2ccc(NC(=O)c3c(Nc4cnc5c(c4C)NCCO5)cc[nH]c3=O)cc2)C[C@H]1C [Example 347, (R)-4-((8-methyl-2,3-dihydro-1H-pyrido[2,3-b][1,4]oxazin-7-yl)amino)-N-(4-(3-methyl-4-propionylpiperazin-1-yl)phenyl)-2-oxo-1,2-dihydropyridine-3-carboxamide] |
| ≥ 8.00 | Cc1c(Nc2cc[nH]c(=O)c2C(=O)Nc2ccc(N3CCN(C(=O)C(C)C)[C@H](C)C3)cc2)cnc2c1NCCO2 [Example 349, (R)-N-(4-(4-isobutyryl-3-methylpiperazin-1-yl)phenyl)-4-((8-methyl-2,3-dihydro-1H-pyrido[2,3-b][1,4]oxazin-7-yl)amino)-2-oxo-1,2-dihydropyridine-3-carboxamide] |
| ≥ 8.00 | Cc1c(Nc2cc[nH]c(=O)c2C(=O)Nc2ccc(N3CCN(C(=O)C4(C)CCC4)CC3)cc2)cnc2c1NCCO2 [Example 306, 4-((8-methyl-2,3-dihydro-1H-pyrido[2,3-b][1,4]oxazin-7-yl)amino)-N-(4-(4-(1-methylcyclobutane-1-carbonyl)piperazin-1-yl)phenyl)-2-oxo-1,2-dihydropyridine-3-carboxamide] |
| 7.00 to 8.00 | Cc1c(Nc2cc[nH]c(=O)c2C(=O)Nc2ccc(N3CCC4(CC3)CC4)cc2)cnc2c1NCCO2 [Example 382, N-(4-(6-azaspiro[2.5]octan-6-yl)phenyl)-4-((8-methyl-2,3-dihydro-1H-pyrido[2,3-b][1,4]oxazin-7-yl)amino)-2-oxo-1,2-dihydropyridine-3-carboxamide] |
| ≥ 8.00 | COCCC(=O)N1CCN(c2ccc(NC(=O)c3c(Nc4cnc5c(c4C)NCCO5)cc[nH]c3=O)cc2)CC1 [Example 285, N-(4-(4-(3-methoxypropanoyl)piperazin-1-yl)phenyl)-4-((8-methyl-2,3-dihydro-1H-pyrido[2,3-b][1,4]oxazin-7-yl)amino)-2-oxo-1,2-dihydropyridine-3-carboxamide] |
| 7.00 to 8.00 | Cc1c(Nc2cc[nH]c(=O)c2C(=O)Nc2ccc(NC3CCN(C)CC3)cc2)cnc2c1NCCO2 [Example 209, 4-((8-methyl-2,3-dihydro-1H-pyrido[2,3-b][1,4]oxazin-7-yl)amino)-N-(4-((1-methylpiperidin-4-yl)amino)phenyl)-2-oxo-1,2-dihydropyridine-3-carboxamide] |
| ≥ 8.00 | Cc1c(Nc2cc[nH]c(=O)c2C(=O)Nc2ccc(N3CCN(C(=O)N4CC(F)(F)C4)CC3)cc2)cnc2c1NCCO2 [Example 319, N-(4-(4-(3,3-difluoroazetidine-1-carbonyl)piperazin-1-yl)phenyl)-4-((8-methyl-2,3-dihydro-1H-pyrido[2,3-b][1,4]oxazin-7-yl)amino)-2-oxo-1,2-dihydropyridine-3-carboxamide] |
| ≥ 8.00 | Cc1c(Nc2cc[nH]c(=O)c2C(=O)Nc2ccc(N3CCN(CC(C)O)CC3)cc2)cnc2c1NCCO2 (stereo not shown) [Example 170, N-(4-(4-(2-hydroxypropyl)piperazin-1-yl)phenyl)-4-((8-methyl-2,3-dihydro-1H-pyrido[2,3-b][1,4]oxazin-7-yl)amino)-2-oxo-1,2-dihydropyridine-3-carboxamide] |
| ≥ 8.00 | Cc1c(Nc2cc[nH]c(=O)c2C(=O)Nc2ccc(N3CCN4C(=O)N(C)CC4C3)cc2)cnc2c1NCCO2 (stereo not shown) [Example 377, 4-((8-methyl-2,3-dihydro-1H-pyrido[2,3-b][1,4]oxazin-7-yl)amino)-N-(4-(2-methyl-3-oxohexahydroimidazo[1,5-a]pyrazin-7(1H)-yl)phenyl)-2-oxo-1,2-dihydropyridine-3-carboxamide] |
| ≥ 8.00 | Cc1c(Nc2cc[nH]c(=O)c2C(=O)Nc2ccc(N3CCN(C(=O)c4ccn[nH]4)CC3)cc2)cnc2c1NCCO2 [Example 303, N-(4-(4-(1H-pyrazole-5-carbonyl)piperazin-1-yl)phenyl)-4-((8-methyl-2,3-dihydro-1H-pyrido[2,3-b][1,4]oxazin-7-yl)amino)-2-oxo-1,2-dihydropyridine-3-carboxamide] |
| ≥ 8.00 | Cc1c(Nc2cc[nH]c(=O)c2C(=O)Nc2ccc(N3CCN(C(=O)C4CC4(C)C)CC3)cc2)cnc2c1NCCO2 (stereo not shown) [Example 309, N-(4-(4-(2,2-dimethylcyclopropane-1-carbonyl)piperazin-1-yl)phenyl)-4-((8-methyl-2,3-dihydro-1H-pyrido[2,3-b][1,4]oxazin-7-yl)amino)-2-oxo-1,2-dihydropyridine-3-carboxamide] |
| ≥ 8.00 | Cc1c(Nc2cc[nH]c(=O)c2C(=O)Nc2ccc(N3CCCC(N)C3)cc2)cnc2c1NCCO2 (stereo not shown) [Example 153, N-(4-(3-aminopiperidin-1-yl)phenyl)-4-((8-methyl-2,3-dihydro-1H-pyrido[2,3-b][1,4]oxazin-7-yl)amino)-2-oxo-1,2-dihydropyridine-3-carboxamide] |

The remaining lines, values behind:

| Structure (SMILES) | pIC50 |
| --- | --- |
| Cc1c(Nc2cc[nH]c(=O)c2C(=O)Nc2ccc(C3CCN(C(C)C)CC3)cc2)cnc2c1NCC(C)O2 (stereo not shown) [Example 384, 4-((3,8-dimethyl-2,3-dihydro-1H-pyrido[2,3-b][1,4]oxazin-7-yl)amino)-N-(4-(1-isopropylpiperidin-4-yl)phenyl)-2-oxo-1,2-dihydropyridine-3-carboxamide] | 7.00 to 8.00 |
| COCC1CN(C)CCN1c1ccc(NC(=O)c2c(Nc3cnc4c(c3C)NCC(C)O4)cc[nH]c2=O)cc1 (stereo not shown) [Example 197, 4-((3,8-Dimethyl-2,3-dihydro-1H-pyrido[2,3-b][1,4]oxazin-7-yl)amino)-N-(4-(2-(methoxymethyl)-4-methylpiperazin-1-yl)phenyl)-2-oxo-1,2-dihydropyridine-3-carboxamide] | 7.00 to 8.00 |
| Cc1c(Nc2cc[nH]c(=O)c2C(=O)Nc2ccc3c(c2)OCO3)cnc2c1NCCO2 [Example 244, N-(benzo[d][1,3]dioxol-5-yl)-4-((8-methyl-2,3-dihydro-1H-pyrido[2,3-b][1,4]oxazin-7-yl)amino)-2-oxo-1,2-dihydropyridine-3-carboxamide] | 7.00 to 8.00 |
| Cc1c(Nc2nc[nH]c(=O)c2C(=O)Nc2ccc(N3CCN(C)CC3)cc2)cnc2c1NCCO2 [Example 98, 4-((8-Methyl-2,3-dihydro-1H-pyrido[2,3-b][1,4]oxazin-7-yl)amino)-N-(4-(4-methylpiperazin-1-yl)phenyl)-6-oxo-1,6-dihydropyrimidine-5-carboxamide] | 7.00 to 8.00 |
| Cc1c(Nc2cc[nH]c(=O)c2C(=O)Nc2ccc3c(c2)NCCO3)cnc2c1NCCO2 [Example 240, N-(3,4-dihydro-2H-benzo[b][1,4]oxazin-6-yl)-4-((8-methyl-2,3-dihydro-1H-pyrido[2,3-b][1,4]oxazin-7-yl)amino)-2-oxo-1,2-dihydropyridine-3-carboxamide] | 7.00 to 8.00 |
| Cc1c(Nc2cc[nH]c(=O)c2C(=O)Nc2ccc(N3CCN(C)CC3)c(C#N)c2)cnc2c1NCC(C)O2 (stereo not shown) [Example 191, N-(3-cyano-4-(4-methylpiperazin-1-yl)phenyl)-4-((3,8-dimethyl-2,3-dihydro-1H-pyrido[2,3-b][1,4]oxazin-7-yl)amino)-2-oxo-1,2-dihydropyridine-3-carboxamide] | 7.00 to 8.00 |
| Cc1c(Nc2cc[nH]c(=O)c2C(=O)Nc2ccc(N3CCN(C)CC3)c(CN(C)C)c2)cnc2c1NCCO2 [Example 227, N-(3-((dimethylamino)methyl)-4-(4-methylpiperazin-1-yl)phenyl)-4-((8-methyl-2,3-dihydro-1H-pyrido[2,3-b][1,4]oxazin-7-yl)amino)-2-oxo-1,2-dihydropyridine-3-carboxamide] | ≥ 8.00 |
| Cc1c(Nc2cc[nH]c(=O)c2C(=O)Nc2ccc(N3CCN(C(=O)N(C)C)CC3)cc2)cnc2c1NCC(C)O2 (stereo not shown) [Example 182, 4-(4-(4-((3,8-dimethyl-2,3-dihydro-1H-pyrido[2,3-b][1,4]oxazin-7-yl)amino)-2-oxo-1,2-dihydropyridine-3-carboxamido)phenyl)-N,N-dimethylpiperazine-1-carboxamide] | ≥ 8.00 |
| Cc1c(Nc2cc[nH]c(=O)c2C(=O)Nc2ccc(N3CCN(C)CC3)cc2)cnc2c1NCC(C)O2 (stereo not shown) [Example 125, 4-((3,8-dimethyl-2,3-dihydro-1H-pyrido[2,3-b][1,4]oxazin-7-yl)amino)-N-(4-(4-methylpiperazin-1-yl)phenyl)-2-oxo-1,2-dihydropyridine-3-carboxamide] | 7.00 to 8.00 |
| Cc1c(Nc2cc[nH]c(=O)c2C(=O)Nc2ccc(N3CCN(C)CC3)c(Cl)c2)cnc2c1NCCO2 [Example 261, N-(3-chloro-4-(4-methylpiperazin-1-yl)phenyl)-4-((8-methyl-2,3-dihydro-1H-pyrido[2,3-b][1,4]oxazin-7-yl)amino)-2-oxo-1,2-dihydropyridine-3-carboxamide] | ≥ 8.00 |
| Cc1c(Nc2cc[nH]c(=O)c2C(=O)Nc2ccc3c(c2)OCC2CN(C)CCN32)cnc2c1NCCO2 (stereo not shown) [Example 168, N-(3-Methyl-1,2,3,4,4a,5-hexahydrobenzo[b]pyrazino[1,2-d][1,4]oxazin-8-yl)-4-((8-methyl-2,3-dihydro-1H-pyrido[2,3-b][1,4]oxazin-7-yl)amino)-2-oxo-1,2-dihydropyridine-3-carboxamide] | ≥ 8.00 |
| CCN1CCN(c2ccc(NC(=O)c3c(Nc4cnc5c(c4C)NCC(C)O5)cc[nH]c3=O)cc2F)CC1 (stereo not shown) [Example 386, 4-((3,8-dimethyl-2,3-dihydro-1H-pyrido[2,3-b][1,4]oxazin-7-yl)amino)-N-(4-(4-ethylpiperazin-1-yl)-3-fluorophenyl)-2-oxo-1,2-dihydropyridine-3-carboxamide] | ≥ 8.00 |
| Cc1c(Nc2cc[nH]c(=O)c2C(=O)Nc2ccc(-c3cnco3)cc2)cnc2c1NCCO2 [Example 146, 4-((8-methyl-2,3-dihydro-1H-pyrido[2,3-b][1,4]oxazin-7-yl)amino)-N-(4-(oxazol-5-yl)phenyl)-2-oxo-1,2-dihydropyridine-3-carboxamide] | 7.00 to 8.00 |

From patent US20250282794A1 (CURADEV PHARMA LTD, priority 2022, published 2025)
